The values below come from paper PMC2939063, “In Vitro and In Vivo Studies of the Trypanocidal Properties of WRR-483 against Trypanosoma cruzi” (PLoS Neglected Tropical Diseases, 2010).

The target in one experiment is T1, Cruzain (Trypanosoma cruzi, UniProt P25779).
T1 construct: made in house
As to the kind of experiment: biochemical. It counts as biochemical. The method, then: For pH dependence studies, cruzain was tested at 4 nM in 5 µM Z-Phe-Arg-AMC in 0.15 M citrate phosphate buffer at pH 5.5 and pH 8.0 with 5 mM DTT, and 0.01% Triton-X 100. Enzyme was added to wells of a 96-well microtiter plate containing substrate and inhibitor diluted in DMSO (0.5% final concentration), or DMSO control. Final inhibitor concentration ranged from 0.01 µM to 10 µM. Experiments were done in triplicate. Assays were run at 25°C in an automated microtiter plate spectrofluorometer, with robotic delivery of enzyme and readings every 1.52 seconds throughout the assay, before and after enzyme addition.
Inhibitor dilutions which produce simple exponential progress curves over a wide range of k obs, were used to determine kinetic parameters. The value of k obs, the rate constant for loss of enzyme activity, was determined from an equation for pseudo first order dynamics using Prism 4.0 (GraphPad). When k obs varied linearly with inhibitor concentration, k ass was determined by linear regression analysis. If the variation was hyperbolic, indicating saturation inhibition kinetics, k inact and K i were determined from an equation describing a two-step irreversible inhibitor mechanism [k obs = k inact [I]o/([I]o+Ki* (1+[S]o/K M))] and non-linear regression analysis Prism 4.0.[32] All values were corrected for substrate concentration.

The target of a further experiment is T2, Cathepsin K (Homo sapiens, UniProt P43235).
T2 construct: Reaction Biology Corp (screening service)
T2 sequence (P43235 115-329): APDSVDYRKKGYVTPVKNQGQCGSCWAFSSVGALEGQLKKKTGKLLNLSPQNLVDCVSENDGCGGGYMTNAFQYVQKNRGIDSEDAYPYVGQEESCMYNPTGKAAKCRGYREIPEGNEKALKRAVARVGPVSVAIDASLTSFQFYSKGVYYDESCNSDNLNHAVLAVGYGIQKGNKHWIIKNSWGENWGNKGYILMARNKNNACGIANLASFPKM
The experiment is described as follows: Protease inhibition profiling (Reaction Biology Corp): Cathepsin K. It is filed as biochemical.

A further experiment addresses T3, Cathepsin S (Homo sapiens, UniProt P25774).
T3 construct: Reaction Biology Corp (screening service)
The experiment is described as follows: Protease inhibition profiling (Reaction Biology Corp): Cathepsin S. It counts as biochemical.

The target in another experiment is T4, Papain (Carica papaya, UniProt P00784).
T4 construct: Reaction Biology Corp (screening service)
T4 sequence (P00784 134-345): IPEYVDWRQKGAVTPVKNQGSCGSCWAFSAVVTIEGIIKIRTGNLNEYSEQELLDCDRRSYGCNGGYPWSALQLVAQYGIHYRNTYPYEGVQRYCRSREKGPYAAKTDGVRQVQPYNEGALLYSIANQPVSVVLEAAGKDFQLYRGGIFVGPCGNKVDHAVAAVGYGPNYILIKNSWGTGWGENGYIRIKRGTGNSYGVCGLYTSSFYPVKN
The experiment is described as follows: Protease inhibition profiling (Reaction Biology Corp): Papain. It counts as biochemical.

A further experiment has as its target T5, cathepsin H (Homo sapiens, UniProt P09668).
T5 construct: Reaction Biology Corp (screening service)
T5 sequence (P09668 98-335): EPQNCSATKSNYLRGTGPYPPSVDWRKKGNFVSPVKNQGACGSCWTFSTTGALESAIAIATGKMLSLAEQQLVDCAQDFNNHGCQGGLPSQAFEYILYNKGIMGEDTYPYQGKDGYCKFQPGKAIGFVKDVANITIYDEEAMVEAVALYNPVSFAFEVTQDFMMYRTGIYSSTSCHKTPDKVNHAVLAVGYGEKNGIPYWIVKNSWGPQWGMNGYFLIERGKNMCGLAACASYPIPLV
The experiment is described as follows: Protease inhibition profiling (Reaction Biology Corp): cathepsin H. It is filed as biochemical. The conditions noted are these: panel of 70 proteases.

A further experiment has as its system Entamoeba histolytica. Conditions: human colonic xenograft model; cited from earlier work.
The mark [1] stands for this setting: pH 5.5, citrate phosphate buffer.
The mark [2] stands for this setting: pH 8.0, citrate phosphate buffer.

What is called IC50 is the concentration that gives 50% inhibition. A high value points to a need for much substance.

T1 sequence (P25779 123-337 limits assumed): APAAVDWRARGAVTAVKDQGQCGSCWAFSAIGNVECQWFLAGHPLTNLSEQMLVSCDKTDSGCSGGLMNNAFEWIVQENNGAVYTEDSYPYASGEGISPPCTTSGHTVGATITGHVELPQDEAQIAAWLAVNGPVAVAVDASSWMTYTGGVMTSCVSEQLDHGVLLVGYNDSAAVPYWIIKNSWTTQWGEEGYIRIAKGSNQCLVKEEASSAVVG
T3 sequence (P25774 115-331, species assumed): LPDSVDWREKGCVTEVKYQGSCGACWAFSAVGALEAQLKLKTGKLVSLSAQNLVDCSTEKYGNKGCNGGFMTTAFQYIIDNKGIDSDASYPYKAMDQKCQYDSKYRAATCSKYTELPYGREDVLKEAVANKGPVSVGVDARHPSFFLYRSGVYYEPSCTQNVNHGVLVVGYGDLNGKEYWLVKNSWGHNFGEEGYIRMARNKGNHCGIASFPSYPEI

For `CN1CCN(C(=O)N[C@@H](CCCNC(=N)N)C(=O)N[C@H](/C=C/S(=O)(=O)c2ccccc2)CCc2ccccc2)CC1` [WRR-483], at Cruzain (citrate phosphate buffer), the “improvement of cruzain IC50 at pH 8.0 than at pH 5.5” value is listed as approximately 10 fold. Further, on Cruzain (citrate phosphate buffer), the “increase in the second-order rate of inactivation of cruzain, pH 8.0 vs pH 5.5” value came out at 4 fold. Also, the IC50 was found to be 70 ± 30 nM at Cruzain (setting [1]), 8 ± 2 nM on Cruzain (setting [2]), 1.4 ± 0.01 nM against Cathepsin S and 373 ± 44 nM at Papain. Moreover, the entries for the “k inact/K i, cruzain” value on Cruzain (setting [1]) and on Cruzain (setting [2]) were 14,000±240 s^-1 M^-1 and 62,000±350 s^-1 M^-1, respectively. At Cathepsin K, the “IC50, Cathepsin K” value is on record as “No inhibition”. Moreover, the “inhibition of cathepsin H” value against cathepsin H is “no inhibition”. Moreover, the “reduction of amebic invasion” value with Entamoeba histolytica is recorded as 95%.
